Where a SMILES comes first, the peptide text is derived from it. [ ]: non-standard residue; d: D form. Nle = CCCC[C@H](N)C(=O)O
Assays:
ABCA1 = assay: Increase of the expression of ABCA1 in THP-1-derived macrophages (immunoblotting); assay type: cell-based, human; details: for intracellular expression of ABCA1 compared with control cells: THP-1 macrophages
Description: THP-1 cells (human leukemia cell, American Type Culture Collection) were cultured for 72 hours in a 10% FBS-RPMI1640 medium (Iwaki Glass Co., Ltd.), together with PMA (phorbol myristate acetate, Wako Pure Chemical Industries Ltd.) to obtain differentiated macrophages. The medium was replaced with 0.2% BSA-RPMI 1640 (Iwaki Glass Co., Ltd.) to which ALLN (50 μM, Sigma) was added, and examined for the time-course of intracellular ABCA1 expression according to the method illustrated herein below.
ALLN-treated cells and control cells cultivated in ALLN-free media were hypotonically disrupted in 5 mM Tris-HCl (pH8.5), and then centrifuged (650 g, for 5 minutes) to precipitate nuclear fractions. The supernatant was centrifuged at 105,000 g for 30 minutes to collect a total membrane fraction. The total membrane was dissolved in an aqueous solution containing 0.9M urea, 0.2% triton X-100 (Wako Pure Chemical Industries Ltd.), and 0.1% dithiothreitol (Wako Pure Chemical Industries Ltd.), followed by addition of 10% lithium dodecyl sulfate solution (Wako Pure Chemical Industries Ltd.) at a volume ratio of 1/4. The resultant was subjected to electrophoretic separation using 10% SDS-7% polyacrylamide gel (Wako Pure Chemical Industries Ltd.). The separated protein was fixed and transferred onto PVDF membrane (Bio-Rad). Each sample was then subjected to immunoblotting with rabbit anti-human ABCA1 antibody (self-made purification by an ordinary method) to quantitate expressed ABCA1 proteins. The obtained bands were read for density and size with Scion Image (image analysis software, Scion) to digitize the results.
In the same manner as in Assay Example 1, THP-1 cells were cultured in a medium to which leupeptin was added in place of ALLN, and compared with control cells non-treated with leupeptin.

THP-1 cells = assay: Acceleration of apoAI-dependent HDL formation (cholesterols and phospholipids transported into the medium); assay type: cell-based, human; details: apoAI & ALLN-added cells vs control group and apoAI-added group; FIG. 3
Source text: In the same manner as in Arakawa et al., J. Lipid Res., 41, 1952-1962 (2000), THP-1 cells were used for quantitative analysis of cholesterols and phospholipids transported into the medium on the basis of apoAI-dependent HDL formation. ALLN-added cells were compared with those free of ALLN addition.

Row | SMILES | intracellular expression of ABCA1 compared with control cells (ABCA1; ALLN 50 μM in medium) | action of increasing the expression of ABCA1 (ABCA1; ALLN 50 μM, 24 hours after addition) | amount of apoAI-dependently transported cholesterols (THP-1 cells) | amount of apoAI-dependently transported phospholipids (THP-1 cells) | intracellular expression of ABCA1 compared with control cells (ABCA1; leupeptin in place of ALLN, FIG. 2 at 7 hours after addition) | action of elevating the expression of ABCA1 (ABCA1; leupeptin, 24 hours after addition to the medium)
1 | CCCC[C@@H](C=O)NC(=O)[C@H](CC(C)C)NC(=O)[C@H](CC(C)C)NC(C)=O [ALLN, N-acetyl-leu-leu-norleucinal] (Ac-Leu-Leu-[Nle]-aldehyde) | remarkable intracellular expression of ABCA1 | found even 24 hours after addition | increase | increase | – | –
2 | CC(=O)N[C@@H](CC(C)C)C(=O)N[C@@H](CC(C)C)C(=O)N[C@H](C=O)CCCNC(=N)N [leupeptin] | – | – | – | – | remarkable increase in the intracellular expression of ABCA1 | found even 24 hours after addition

Reference: patent US20050085408A1, “Drugs ameliorating hypo-hdl cholesterolemia” (priority 2001, published 2005)
